Measurements: PubChem BioAssay (NCI)
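All cell lines were grown in 96-well plates and treated with compound for 48 hours. The concentration for 50% growth inhibition is given as GI50. TGI denotes the concentration required for complete inhibition of growth.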

What was measured:
Experiment in all cases: NCI-60 cell line screen, 48 h
786-0 renal = tested on: 786-0 renal
A498 renal = tested on: A498 renal
A549 NSCLC = tested on: A549 NSCLC
ACHN renal = tested on: ACHN renal
BT-549 breast = tested on: BT-549 breast
CAKI-1 renal = tested on: CAKI-1 renal
CCRF-CEM leukemia = tested on: CCRF-CEM leukemia
COLO 205 colon = tested on: COLO 205 colon
DU-145 prostate = tested on: DU-145 prostate
EKVX NSCLC = tested on: EKVX NSCLC
HCC-2998 colon = tested on: HCC-2998 colon
HCT-116 colon = tested on: HCT-116 colon
HCT-15 colon = tested on: HCT-15 colon
HL-60(TB) leukemia = tested on: HL-60(TB) leukemia
HOP-62 NSCLC = tested on: HOP-62 NSCLC
HOP-92 NSCLC = tested on: HOP-92 NSCLC
HS 578T breast = tested on: HS 578T breast
HT29 colon = tested on: HT29 colon
IGROV1 ovarian = tested on: IGROV1 ovarian
K-562 leukemia = tested on: K-562 leukemia
KM12 colon = tested on: KM12 colon
LOX IMVI melanoma = tested on: LOX IMVI melanoma
M14 melanoma = tested on: M14 melanoma
MALME-3M melanoma = tested on: MALME-3M melanoma
MCF7 breast = tested on: MCF7 breast
MDA-MB-231 breast = tested on: MDA-MB-231 breast
MDA-MB-435 = tested on: MDA-MB-435
MDA-MB-468 breast = tested on: MDA-MB-468 breast
MOLT-4 leukemia = tested on: MOLT-4 leukemia
NCI-H226 lung = tested on: NCI-H226 lung
NCI-H23 lung = tested on: NCI-H23 lung
NCI-H460 lung = tested on: NCI-H460 lung
NCI-H522 lung = tested on: NCI-H522 lung
NCI/ADR-RES ovarian = tested on: NCI/ADR-RES ovarian
OVCAR-3 ovarian = tested on: OVCAR-3 ovarian
OVCAR-4 ovarian = tested on: OVCAR-4 ovarian
OVCAR-5 ovarian = tested on: OVCAR-5 ovarian
OVCAR-8 ovarian = tested on: OVCAR-8 ovarian
PC-3 prostate = tested on: PC-3 prostate
RPMI-8226 leukemia = tested on: RPMI-8226 leukemia
RXF 393 renal = tested on: RXF 393 renal
SF-268 CNS = tested on: SF-268 CNS
SF-295 CNS = tested on: SF-295 CNS
SF-539 CNS = tested on: SF-539 CNS
SK-MEL-2 melanoma = tested on: SK-MEL-2 melanoma
SK-MEL-28 melanoma = tested on: SK-MEL-28 melanoma
SK-MEL-5 melanoma = tested on: SK-MEL-5 melanoma
SK-OV-3 ovarian = tested on: SK-OV-3 ovarian
SN12C renal = tested on: SN12C renal
SNB-19 CNS = tested on: SNB-19 CNS
SNB-75 CNS = tested on: SNB-75 CNS
SR leukemia = tested on: SR leukemia
SW-620 colon = tested on: SW-620 colon
T-47D breast = tested on: T-47D breast
TK-10 renal = tested on: TK-10 renal
U251 CNS = tested on: U251 CNS
UACC-257 melanoma = tested on: UACC-257 melanoma
UACC-62 melanoma = tested on: UACC-62 melanoma
UO-31 renal = tested on: UO-31 renal

Structure (SMILES): COc1ccc(-c2nc(S(=O)(=O)c3ccccc3)c(S(C)(=O)=O)o2)cc1
- GI50 (786-0 renal): 2.08 µM
- TGI (786-0 renal): 4.98 µM
- GI50 (A498 renal): 15.5 µM
- TGI (A498 renal): 29 µM
- GI50 (A549 NSCLC): 19.1 µM
- TGI (A549 NSCLC): 42.1 µM
- GI50 (ACHN renal): 1.7 µM
- TGI (ACHN renal): 3.13 µM
- GI50 (BT-549 breast): 10.1 µM
- TGI (BT-549 breast): 22.6 µM
- GI50 (CAKI-1 renal): 2.59 µM
- TGI (CAKI-1 renal): 10.9 µM
- GI50 (CCRF-CEM leukemia): 2.07 µM
- TGI (CCRF-CEM leukemia): 6.22 µM
- GI50 (COLO 205 colon): 2.22 µM
- TGI (COLO 205 colon): 4.9 µM
- GI50 (DU-145 prostate): 6.26 µM
- TGI (DU-145 prostate): 20.4 µM
- GI50 (EKVX NSCLC): 12.2 µM
- TGI (EKVX NSCLC): 26.6 µM
- GI50 (HCC-2998 colon): 15 µM
- TGI (HCC-2998 colon): 29 µM
- GI50 (HCT-116 colon): 1.99 µM
- TGI (HCT-116 colon): 4.58 µM
- GI50 (HCT-15 colon): 2.04 µM
- TGI (HCT-15 colon): 4.62 µM
- GI50 (HL-60(TB) leukemia): 2.38 µM
- TGI (HL-60(TB) leukemia): 20.9 µM
- GI50 (HOP-62 NSCLC): 18.2 µM
- TGI (HOP-62 NSCLC): 35.2 µM
- GI50 (HOP-92 NSCLC): 7.29 µM
- TGI (HOP-92 NSCLC): 20.8 µM
- GI50 (HS 578T breast): 12.8 µM
- TGI (HS 578T breast): 48.4 µM
- GI50 (HT29 colon): 3.15 µM
- TGI (HT29 colon): 9.31 µM
- GI50 (IGROV1 ovarian): 13.1 µM
- TGI (IGROV1 ovarian): 27.2 µM
- GI50 (K-562 leukemia): 2.77 µM
- TGI (K-562 leukemia): > 100 µM
- GI50 (KM12 colon): 17.6 µM
- TGI (KM12 colon): 35.7 µM
- GI50 (LOX IMVI melanoma): 1.54 µM
- TGI (LOX IMVI melanoma): 2.92 µM
- GI50 (M14 melanoma): 3.26 µM
- TGI (M14 melanoma): 14.3 µM
- GI50 (MALME-3M melanoma): 1.67 µM
- TGI (MALME-3M melanoma): 3.1 µM
- GI50 (MCF7 breast): 2.46 µM
- TGI (MCF7 breast): 8.25 µM
- GI50 (MDA-MB-231 breast): 3.52 µM
- TGI (MDA-MB-231 breast): 12.2 µM
- GI50 (MDA-MB-435): 8.96 µM
- TGI (MDA-MB-435): 21.8 µM
- GI50 (MDA-MB-468 breast): 2.24 µM
- TGI (MDA-MB-468 breast): 4.41 µM
- GI50 (MOLT-4 leukemia): 3.39 µM
- TGI (MOLT-4 leukemia): 13.2 µM
- GI50 (NCI-H226 lung): 18.2 µM
- TGI (NCI-H226 lung): 40.9 µM
- GI50 (NCI-H23 lung): 12 µM
- TGI (NCI-H23 lung): 27.2 µM
- GI50 (NCI-H460 lung): 13.9 µM
- TGI (NCI-H460 lung): 29.7 µM
- GI50 (NCI-H522 lung): 1.65 µM
- TGI (NCI-H522 lung): 3.32 µM
- GI50 (NCI/ADR-RES ovarian): 17 µM
- TGI (NCI/ADR-RES ovarian): 48 µM
- GI50 (OVCAR-3 ovarian): 1.74 µM
- TGI (OVCAR-3 ovarian): 3.33 µM
- GI50 (OVCAR-4 ovarian): 3.44 µM
- TGI (OVCAR-4 ovarian): 15.4 µM
- GI50 (OVCAR-5 ovarian): 14.4 µM
- TGI (OVCAR-5 ovarian): 27.9 µM
- GI50 (OVCAR-8 ovarian): 13.6 µM
- TGI (OVCAR-8 ovarian): 32.1 µM
- GI50 (PC-3 prostate): 14.1 µM
- TGI (PC-3 prostate): 30 µM
- GI50 (RPMI-8226 leukemia): 3.97 µM
- TGI (RPMI-8226 leukemia): > 100 µM
- GI50 (RXF 393 renal): 2.07 µM
- TGI (RXF 393 renal): 4.09 µM
- GI50 (SF-268 CNS): 14.4 µM
- TGI (SF-268 CNS): 33.9 µM
- GI50 (SF-295 CNS): 15.7 µM
- TGI (SF-295 CNS): 29.6 µM
- GI50 (SF-539 CNS): 3.93 µM
- TGI (SF-539 CNS): 14.6 µM
- GI50 (SK-MEL-2 melanoma): 14.2 µM
- TGI (SK-MEL-2 melanoma): 28 µM
- GI50 (SK-MEL-28 melanoma): 12.5 µM
- TGI (SK-MEL-28 melanoma): 25.2 µM
- GI50 (SK-MEL-5 melanoma): 15.2 µM
- TGI (SK-MEL-5 melanoma): 29.1 µM
- GI50 (SK-OV-3 ovarian): 21.7 µM
- TGI (SK-OV-3 ovarian): 44.9 µM
- GI50 (SN12C renal): 11.4 µM
- TGI (SN12C renal): 23.5 µM
- GI50 (SNB-19 CNS): 16.5 µM
- TGI (SNB-19 CNS): 31.8 µM
- GI50 (SNB-75 CNS): 11.3 µM
- TGI (SNB-75 CNS): 23.7 µM
- GI50 (SR leukemia): 2.66 µM
- TGI (SR leukemia): 25.6 µM
- GI50 (SW-620 colon): 1.67 µM
- TGI (SW-620 colon): 3.39 µM
- GI50 (T-47D breast): 2.16 µM
- TGI (T-47D breast): 5.03 µM
- GI50 (TK-10 renal): 7.5 µM
- TGI (TK-10 renal): 21 µM
- GI50 (U251 CNS): 17.7 µM
- TGI (U251 CNS): 34.3 µM
- GI50 (UACC-257 melanoma): 13 µM
- TGI (UACC-257 melanoma): 28 µM
- GI50 (UACC-62 melanoma): 11.2 µM
- TGI (UACC-62 melanoma): 23.2 µM
- GI50 (UO-31 renal): 5.43 µM
- TGI (UO-31 renal): 18.3 µM
